{"source": "patent US6770303B1", "about": "“Use of antifungal and/or antibacterial and/or antiviral compounds” (priority 1998, dated 2004)", "key": {"[1]": {"test_system": "phenylalanine ammonia lyase (PAL)", "experiment": "PAL activity in tobacco cell cultures after potentiator pretreatment and elicitation", "format": "cell-based, Nicotiana tabacum", "description": "Measurement of the activity of PAL (phenylalanine ammonia lyase): key enzyme in the phenylpropanoid pathway and more particularly in the lignification involved in defense reactions in plants (most particularly in monocotyledon plants).\n(§1) The cell suspensions used are suspensions of Nicotiana tabacum BY (bright yellow) obtained from Washington State University (Pullman, USA). They are cultured in the dark, at 24° C. with agitation (120 rpm) and subcultured every 7 days by transferring 10 ml of culture into 70 ml of fresh medium.\n(§2) The cells are pretreated 5 days after subculturing (end of the exponential growth phase) and elicited on the 6th day. Two hours before pretreatment, 10 ml of cells are transferred into 25 ml conical flasks. For the phenylalanine ammonia lyase (PAL) and lipoxygenase (LOX) activity analyses and the determination of the salicylic acid (SA), the cells are harvested at the desired time by filtration on Whatman 3 M paper, frozen in liquid nitrogen and stored at −80° C. until the analysis.\nThe cells (0.5 g) are ground in 0.1 M pH 8.8 borate buffer in the presence of active charcoal and quartz. The grinding ratio is 1/5 (w/v). After centrifugation, 100 μl of cell extract are incubated for 1 h at 37° C. in the presence of 200 μl of 0.1 M pH 8.8 borate buffer and 100 μl of a mixture of 0.1 M pH 8.8 borate buffer and 300 μM L-phenylalanine (labelled and cold mixture); the final solution has a specific activity of 810,000 cpm/ml.\nThe reaction is quenched by adding a few drops of 9 N H2SO4. 2 ml of H2O are added. The reaction products are extracted by adding 2 ml of an ether/cyclohexane mixture (1/1, v/v). Since the phenylalanine is insoluble in this mixture, the reaction is counted on 1 ml in the presence of “multi-purpose” scintillation liquid.\n(§3) In all cases, the pretreatment with the potentiator is carried out 18 hours before the elicitor treatment.\nThe samples for analysing the physiological effects are taken 4 hours, 12 hours or 24 hours after elicitation. The controls corresponding to a potentiation alone or an elicitation alone are systematically present for each sample taken."}, "Erysiphe graminis": {"test_system": "Erysiphe graminis", "experiment": "Open-field test on powdery mildew of wheat by foliar treatment", "format": "in vivo", "settings": "winter wheat, fosetyl-Al 1000 g/ha a.m., Agrimer 540 1 l/ha", "description": "Open-field Test on Powdery Mildew (Erysiphe graminis) of Wheat (Triticum aestivum, Winter Variety) by Foliar Treatment.\n(§4) The fungicide used is fosetyl-Al (WG applied at 1.25 kg/ha, i.e. 1000 g/ha of active material) and the algal extract (solution LC, 1 l/ha) is Agrimer 540 from the company Agrimer.\nAll these products are used at a rate of 1000 g/ha and the percentage of plants attacked (% of leaves destroyed) by the disease is determined, on the one hand on a foliar stage treated semi-curatively (reading taken 22 days after the treatment T), and on the other hand on a foliar stage treated curatively (reading taken 27 days after the treatment T)."}, "tobacco cell cultures": {"test_system": "tobacco cell cultures", "format": "cell-based, Nicotiana tabacum", "text": "Fosetyl-Al and phosphorous acid have mainly been selected as potentiators in the biological experimentation, but, for reasons of toxicity of fosetyl-Al on tobacco cell cultures, we replaced it with fosetyl sodium in the cell tests."}, "Erysiphe cichoracerum": {"test_system": "Erysiphe cichoracerum", "experiment": "Open-field trial on powdery mildew of melon by foliar treatment", "format": "in vivo", "settings": "Agrimer 540 1 l/ha", "description": "Open-field Trial on Powdery Mildew (Erysiphe cichoracerum) of Melon (Cucumis melo, Rochet Variety) by Foliar Treatment.\nas §4\nAll of these products are used at a dose of 1000 g/ha and the percentage of plants attacked by the disease is determined 15 days after two treatments T1 and T2 (carried out with an interval of 7 days)."}, "salicylic acid (SA)": {"test_system": "salicylic acid (SA)", "experiment": "Salicylic acid (SA) accumulation in tobacco cell cultures", "format": "cell-based, Nicotiana tabacum", "method": "The samples (0.5 g) of tobacco cells or leaves are ground in liquid nitrogen and grinding is then continued in the presence of 0.8 ml of 90% methanol. A known amount of ^14C-labelled SA (1 nCi, 54 mCi/mol, Sigma) is then added in order to estimate the yield for the recovery of the endogenous SA. The amount of labelled SA added is less than the detection threshold for the analysis. […]\nThe samples are brought to pH 2 by addition of 2 M HCl and are then heated at 80° C. for one hour. […] 20 ml of this mixture, to which are added 3 ml of scintillation liquid (Ready Gel, Beckmann), are taken for counting of the residual radioactivity, which allows calculation of the SA recovery yield. The contents of total SA determined correspond to the sum of the SA contents in free form and of the SA contents in conjugated form, the SA being released during the hydrolysis.\nThe elution is programmed on a Waters HPLC system in an isocratic system for 10 min. […] The SA is quantified by fluorometry (λ excitation=315 nm, λ emission=405 nm). […] The amounts of SA injected are calculated by means of comparing the area of the peaks corresponding to SA with that of the standard molecule injected. The SA contents in the samples are then calculated, taking the recovery yield into account. […]"}, "lipoxygenase (LOX)": {"test_system": "lipoxygenase (LOX)", "experiment": "LOX activity in tobacco cell cultures after potentiator pretreatment and elicitation", "format": "cell-based, Nicotiana tabacum", "settings": "for LOX activity relative to the corresponding control: 18 h pretreatment; for LOX activity, potentiator applied alone / Effect on LOX activity, potentiator in itself: no elicitor; for Effect on LOX activity, potentiator in itself: conclusion of Example 1", "description": "Measurement of the activity of LOX (lipoxygenase) which is a key enzyme in the synthesis of jasmonic acid, another signal molecule.\nas §1, §2\nThe cells (250 mg) are ground in 0.5 ml of extraction buffer in the presence of quartz.\nThe ground mixture is centrifuged for 15 min at 4° C. and 13,000 rpm. 2.87 ml of 0.1 M pH 6.8 Tris buffer are added to the cell extract, followed by 30 μl of 10 mM linolenic acid. After stirring, the change in the OD is monitored at 234 nm.\nas §3\n[…] The controls corresponding to a potentiation alone or an elicitation alone are systematically present for each sample taken."}, "[2]": {"settings": "cells potentiated and elicited with a pectin oligomer, compared with the other conditions"}}, "note": "Entries after “also recorded” stand apart in the source; their conditions may differ. Read-outs that look alike come from different tables or passages of the source.", "data": [{"smiles": "CSC(=O)c1cccc2nnsc12", "note": "[BTH, reference compound]", "values": [{"measurement": "PAL activity of potentiated and elicited cells (FIG. 21)", "setting": "[1]; [2]", "result": "much higher"}]}, {"smiles": "CCO[PH](=O)O", "note": "[Fosetyl-Al, fosetyl-Al]", "values": [{"measurement": "% of leaves destroyed at T + 22, semi-curative", "setting": "Erysiphe graminis; untreated control 91.1", "result": 77.8, "unit": "%"}, {"measurement": "% of leaves destroyed at T + 27, curative", "setting": "Erysiphe graminis; untreated control 100", "result": 100, "unit": "%"}, {"measurement": "Toxicity on tobacco cell cultures", "setting": "tobacco cell cultures", "result": "toxicity"}, {"measurement": "percentage of plants attacked by the disease, % at T2 + 15 days", "setting": "Erysiphe cichoracerum; T2 7 days after T1, fosetyl-Al 1000 g/ha a.m., untreated control 95.0", "result": 80.0, "unit": "%"}, {"measurement": "percentage of plants attacked by the disease, % at T1 + 15 days", "setting": "Erysiphe cichoracerum; fosetyl-Al 1000 g/ha a.m., untreated control 91.7", "result": 80.0, "unit": "%"}]}, {"smiles": "OP(O)O", "note": "[H3PO3, phosphorous acid]", "values": [{"measurement": "Effect on synthesis of SA, potentiator in itself", "setting": "salicylic acid (SA)", "result": "do not in themselves have any effect"}, {"measurement": "Rate of synthesis of SA relative to unconditioned cells", "setting": "salicylic acid (SA)", "result": "large increase"}, {"measurement": "Effect of conditioning on PAL activity after elicitation", "setting": "[1]", "result": "strong stimulation of the PAL activity; also recorded: greater than that observed in the unconditioned cells"}, {"measurement": "Effect of pretreatment on induction of PAL activity by the elicitor", "setting": "[1]", "result": "markedly amplifies the response to the elicitor"}, {"measurement": "Induction of PAL activity, potentiator applied alone", "setting": "[1]", "result": "No significant inductive effect; also recorded: do not in themselves have any effect"}, {"measurement": "PAL activity of potentiated and elicited cells (FIG. 21)", "setting": "[1]", "result": "much higher"}, {"measurement": "PAL activity of pretreated cells versus unconditioned cells", "setting": "[1]", "result": "always greater than that observed in the unconditioned cells"}, {"measurement": "PAL activity relative to the level of the unconditioned cells", "setting": "[1]", "result": 4, "unit": "times"}, {"measurement": "LOX activity relative to the corresponding control", "setting": "lipoxygenase (LOX); measured 12 h after elicitation with 2 nM β-megaspermine", "result": "about 28 times"}, {"measurement": "LOX activity relative to the corresponding control", "setting": "lipoxygenase (LOX); measured 21 h after elicitation with 10 μg/ml oligosaccharide elicitor of β-glucan type", "result": "about 4 times"}, {"measurement": "LOX activity, potentiator applied alone", "setting": "lipoxygenase (LOX); 30 h (18 h of pretreatment+12 h) after application", "result": "No inductive effect"}, {"measurement": "LOX activity, potentiator applied alone", "setting": "lipoxygenase (LOX); 39 h (18 h of pretreatment+21 h) after application", "result": "mild inductive effect"}, {"measurement": "Effect on LOX activity, potentiator in itself", "setting": "lipoxygenase (LOX)", "result": "do not in themselves have any effect"}]}, {"smiles": "CCO[PH](=O)O", "note": "[fosetyl-Na]", "values": [{"measurement": "Effect on synthesis of SA, potentiator in itself", "setting": "salicylic acid (SA); no elicitor, conclusion of Example 1", "result": "do not in themselves have any effect"}, {"measurement": "PAL activity of pretreated cells versus unconditioned cells", "setting": "[1]; 5 mM conditioning 18 h, then 2 nM β-megaspermine (FIG. 9)", "result": "always greater than that observed in the unconditioned cells"}, {"measurement": "Effect of conditioning on PAL activity after elicitation", "setting": "[1]; 5 mM conditioning 18 h, then 20 μg/ml pectin oligomers", "result": "maintains the PAL activity at a high level 11 h after the elicitation"}, {"measurement": "PAL activity of potentiated and elicited cells (FIG. 21)", "setting": "[1]; [2]", "result": "much higher"}, {"measurement": "Induction of PAL activity, potentiator applied alone", "setting": "[1]; no elicitor", "result": "No significant effect; also recorded: do not in themselves have any effect"}, {"measurement": "Effect on LOX activity, potentiator in itself", "setting": "lipoxygenase (LOX)", "result": "do not in themselves have any effect"}]}]}
